These results are taken from patent US5175253A, “Binding peptides” (Washington University, priority 1991, dated 1992).

The test system of data set [1] is SEC receptor. As to conditions: cited from earlier work.
The test system of data set [2] is SEC receptor. The data set is described as follows: Competition for binding of 125I peptide 105Y to HepG2 cells. On the set-up: species or system human. As to conditions: 125I peptide 105Y 50 nM, 2 hrs at 4° C., unlabelled competitor. How it is done:
For each test HepG2 cells were incubated for 2 hrs at 4° C. in binding buffer, ^125 I peptide 105Y at saturating concentrations (50 nM) and competing unlabelled synthetic peptides in the concentrations specified on the horizontal axis. […] Binding in the absence of competitor was arbitrarily designated 100% binding on the vertical axis. Each data point and set of error bars represent mean and 1 standard deviation for four separate determinations. Partial amino acid sequences of α1 AT and synthetic peptides are shown at the top of each of panels a, b and c.
Each bar represents mean and 1 standard deviation for 3 separate determinations.

For data set [3], the system named is SEC receptor. The data set is described as follows: Competition for binding of α1 AT-125I trypsin complexes to HepG2 cells. On the set-up: species or system human. To be noted: complexes 50 nM, competitor in 50-fold molar excess, 2 hrs at 4° C. How it is done: FIG. 2 presents two bar graphs which show competition for binding and internalization of α1 AT^125 I trypsin complexes by HepG2 cells. For panel a, HepG2 cells were incubated for 2 hours at 4° C. in binding buffer, α1 AT-^125 I trypsin complexes in subsaturating concentrations (50 nM) and competing unlabelled proteins or synthetic peptides in 50-fold molar excess. The cells were then rinsed, homogenized and cell-associated radioactivity determined. Binding in the absence of competitor was arbitrarily designated 0% inhibition of binding on the vertical axis. Results represent mean and 1 standard deviation for 3 separate determinations of each competitor. For panel b, HepG2 cells were incubated for 1 hour at 37° C. in binding buffer, α1 AT^125 I trypsin complexes in subsaturating concentrations (50 nM) and competing unlabelled proteins or synthetic peptides in 50-fold molar excess. […] Internalization in the absence of competitor was arbitrarily designated 0% inhibition of internalization on the vertical axis. Results represent mean and 1 standard deviation for 3 separate determinations of each putative competitor. Partial amino acid sequences for α1 AT and peptides are shown at the top of each panel. […]

The test system of data set [4] is SEC receptor. Briefly: Competition for internalization of α1 AT-125I trypsin complexes by HepG2 cells. The data set is classed as cell-based, human. As to conditions: 50-fold molar excess, 60 minutes at 37° C., Proteinase K-resistant radioactivity. On the procedure:
FIG. 2 presents two bar graphs which show competition for binding and internalization of α1 AT^125 I trypsin complexes by HepG2 cells. For panel a, HepG2 cells were incubated for 2 hours at 4° C. in binding buffer, α1 AT-^125 I trypsin complexes in subsaturating concentrations (50 nM) and competing unlabelled proteins or synthetic peptides in 50-fold molar excess. The cells were then rinsed, homogenized and cell-associated radioactivity determined. Binding in the absence of competitor was arbitrarily designated 0% inhibition of binding on the vertical axis. Results represent mean and 1 standard deviation for 3 separate determinations of each competitor. For panel b, HepG2 cells were incubated for 1 hour at 37° C. in binding buffer, α1 AT^125 I trypsin complexes in subsaturating concentrations (50 nM) and competing unlabelled proteins or synthetic peptides in 50-fold molar excess. […] Internalization in the absence of competitor was arbitrarily designated 0% inhibition of internalization on the vertical axis. Results represent mean and 1 standard deviation for 3 separate determinations of each putative competitor. Partial amino acid sequences for α1 AT and peptides are shown at the top of each panel.
The cells were then rinsed extensively and incubated with Proteinase K for an additional 60 minutes at 4° C. to remove any surface bound radiolabelled ligand. Internalization was defined as radioactivity associated with the resulting cell pellet. […] Higher degrees of inhibition were achieved by higher concentrations of competitors in other tests.

The test system of data set [5] is SEC receptor. The data set is described as follows: Competition for binding of 125I peptide 105C to HepG2 cells. Details: species or system human. To be noted: 125I peptide 105C 50 nM, 2 hours at 4° C. How it is done: (§1) Left panel a: cells were incubated 2 hours at 4° C. with several different concentrations of ^125 I peptide 105C in the absence (open circles, total ligand binding) or the presence of unlabelled peptide 105C in 200-fold molar excess (filled circles, nonspecific binding). The difference was designated specific binding (open triangles). The cells were then rinsed and cell-associated radioactivity was determined by gamma counting of cell homogenates. Right panel b: cells were incubated for 2 hours at 4° C. with ^125 I peptide 105C in subsaturating concentrations (50 nM) in the absence or presence of unlabelled competing proteins or peptides as indicated on the horizontal axis. The molar excess in fold of each competitor is indicated in parentheses. Binding in the absence of competitor was arbitrarily designated 0% inhibition of binding on the vertical axis.
(§2) The direct binding of peptide 105C to HepG2 cells was also examined. This peptide was radioiodinated by the chloramine T method and purified by reverse phase C:18 chromatography. Separate monolayers of cells were incubated with ^125 I-105C in several different concentrations either in the absence or presence of unlabelled 105C in 200-fold molar excess (FIG. 3, left panel a). […]

For another data set, the target named is T1, substance P receptor (Rattus norvegicus, UniProt P14600).
T1 construct: expressed in transfected cells
The data set is described as follows: Competition for binding of substance P to a stable transfected cell line expressing the substance P receptor.

In data set [6] the test system is SEC receptor. To be noted: unlabelled competitor; cited from earlier work.
Another data set deals with synthesis of α1 AT. To be noted: cited from earlier work.
Data set [7] has as its system SEC receptor. Briefly: Competition for binding to, and cross-linking of, the SEC receptor of HepG2 cells. On the set-up: species or system human.
Data set [8] deals with SEC receptor. Briefly: Direct binding of 125I peptide 105C to HepG2 cells. Details: species or system human. How it is done:
as §1, §2

Data set [9] can be described thus: Solubility of peptides in water and DMSO.
Protocol: Some of the peptides used as candidate competitors, especially the pentapeptides, were dissolved in dimethylsulfoxide (DMSO) because they were not soluble in water. For all of these tests the same final concentration of DMSO was added to each cell monolayer.

pKd: −log10 of the molar value. Where two headings read alike, the source gives them in different places. Ends that are not written are not given here.

T1 sequence (P14600 whole entry): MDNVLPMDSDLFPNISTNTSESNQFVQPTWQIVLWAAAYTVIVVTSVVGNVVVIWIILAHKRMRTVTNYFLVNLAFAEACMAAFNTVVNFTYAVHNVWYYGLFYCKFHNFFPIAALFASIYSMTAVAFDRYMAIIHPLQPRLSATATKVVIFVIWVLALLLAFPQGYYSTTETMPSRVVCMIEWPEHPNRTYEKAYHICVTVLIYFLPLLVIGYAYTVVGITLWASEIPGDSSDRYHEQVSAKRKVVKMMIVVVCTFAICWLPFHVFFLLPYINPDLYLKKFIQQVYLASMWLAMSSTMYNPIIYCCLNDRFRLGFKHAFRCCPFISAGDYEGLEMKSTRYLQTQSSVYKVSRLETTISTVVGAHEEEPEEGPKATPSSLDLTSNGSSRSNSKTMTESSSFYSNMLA

For “α1 ACT-cathepsin G complexes: serpin-enzyme complex”, the “blocking of binding of 125I peptide 105Y” value with SEC receptor [1] is reported as “blocked”.

For the compound “SIPPEVKFNKPFVYLI [peptide 105Y, carboxy-terminal fragment, amino acids 359-374, of α1 AT]”, the “competition for binding of 125I peptide 105Y to HepG2 cells” value in the data set with SEC receptor [2] is “compete”. For the same compound, the “inhibition of binding of α1 AT-125I trypsin complexes to HepG2 cells” value with SEC receptor [3] is “inhibits binding”. Further, in the data set with SEC receptor [4], the “inhibition of internalization of α1 AT-125I trypsin complexes” value is recorded as “inhibits internalization”. The “inhibition of binding of 125I 105C” value in the data set with SEC receptor [5] is listed as “inhibited”. The “competition for binding of substance P” value in the data set with substance P receptor is “do not compete for binding of substance P”. At SEC receptor [1] (125I peptide 105Y, HepG2 cells and human blood monocytes, read-out: K2), the pKd was 7.40. Moreover, in the data set on SEC receptor [1] (HepG2 cells and human blood monocytes), the “direct binding of 125I peptide 105Y” value was “bound specifically and saturably”. Also, the “blocking of binding of 125I α1 AT-elastase complexes” value in the data set on SEC receptor [6] is recorded as “blocked binding”. The “effect on synthesis of α1 AT” value in the data set with synthesis of α1 AT was “mediated an increase in synthesis of α1 AT”.

As for amyloid-β-protein, the “competition for binding to, and cross-linking of, the SEC receptor” value in the data set on SEC receptor [7] is “compete for binding to, and cross-linking of, the SEC receptor”. Besides, the “competition for binding of substance P” value at substance P receptor is reported as “do not compete for binding of substance P”.

In the case of `CSCC[C@H](NC(=O)[C@H](CC(C)C)NC(=O)[C@H](Cc1cnc[nH]1)NC(=O)CNC(=O)[C@@H](NC(=O)[C@H](C)NC(=O)[C@H](Cc1c[nH]c2ccccc12)NC(=O)[C@H](CCC(N)=O)NC(=O)[C@H](CC(N)=O)NC(=O)CNC(=O)[C@H](CC(C)C)NC(=O)[C@H](CCCN=C(N)N)NC(=O)[C@H](CCC(N)=O)NC(=O)[C@@H]1CCC(=O)N1)C(C)C)C(N)=O` [bombesin], the “competition for binding to, and cross-linking of, the SEC receptor” value with SEC receptor [7] was “compete for binding to, and cross-linking of, the SEC receptor”. Further, the “competition for binding of substance P” value on substance P receptor is listed as “do not compete for binding of substance P”.

Regarding “Phe-Val-Tyr-Leu-Ile (FVYLI) [peptide 105C]”, the results for the “competition for binding of 125I peptide 105Y to HepG2 cells” value in the data set with SEC receptor [2] and in the data set on SEC receptor [2] (listed as FVYLI) were “compete as effectively as peptide 105Y” and “no difference in inhibition of binding”, respectively. Further, in the data set with SEC receptor [3], the “inhibition of binding of α1 AT-125I trypsin complexes to HepG2 cells” value is listed as “inhibits binding”. The “inhibition of internalization of α1 AT-125I trypsin complexes” value with SEC receptor [4] was “inhibits internalization as effectively as peptide 105Y and unlabelled α1 AT-trypsin complexes”. Also, in the data set with SEC receptor [8] (125I-105C with or without unlabelled 105C in 200-fold molar excess), the “direct binding to HepG2 cells” value is “specific and saturable binding”. Further, the pKd in the data set on SEC receptor [8] (125I-105C, HepG2 cells, 2 hours at 4° C., read-out: point of half-maximal saturation) was roughly 7.40.

Regarding “native α1 AT: purified human plasma α1-antitrypsin, 55 kDa serum glycoprotein”, the “inhibition of internalization of α1 AT-125I trypsin complexes” value in the data set on SEC receptor [4] is listed as “no significant inhibition of internalization”.

Take “α1 AT-elastase complexes: complex of α1 AT with neutrophil elastase”: the “blocking of binding of 125I peptide 105Y” value in the data set with SEC receptor [1] is reported as “blocked”.

Consider “EVKFNKP [peptide 105B, Glu-Val-Lys-Phe-Asn-Lys-Pro]”, for which, in [9], the solubility entry was “soluble in both water and DMSO”.
